Read-outs that look alike come from different tables or passages of the source.
What was measured:
[1] = system: Plasmodium falciparum 3D7-A10 parasites; assay: Stage specificity assay (8-h exposure of synchronized stages, IC50^8h); format: cell-based; details: for IC50: Plasmodium falciparum
[2] = system: 3D7-MR4 trophozoite parasite-infected RBCs; details: 10 × IC50^72h; ref Allman et al., 2016; cited from earlier work
[3] = system: asynchronous 3D7-A10 parasite cultures; assay: Standard 72-h exposure asexual blood stage susceptibility assay (IC50^72h); format: cell-based, Plasmodium falciparum; details: Plasmodium falciparum, 3D7, 72 h, read-out: Overall (72hr assay) Mean IC50 (IC50^72h)
[4] = system: 3D7-MR4 trophozoite parasite-infected RBCs; assay: Metabolomic profiling (hydrophilic metabolite changes, UHPLC-MS); format: cell-based, Plasmodium falciparum

C[C@H]1Cc2c([nH]c3cc(Cl)c(F)cc23)[C@@]2(N1)C(=O)Nc1ccc(Cl)cc12 [KAE609, reference compound]
Ratio lowest IC50 8hr/IC50 72hr ([1]; 3D7-A10): 1.5 | overall activity profile (stages on which active) ([1]; 8-h exposures): inactive against rings yet active against early trophozoites and later stages | IC50 ([1]; 3D7, read-out: Early rings IC50 (IC50^8h)): > 1250 nM | IC50 ([1]; 3D7, read-out: Early trophozoites Mean IC50 (IC50^8h)): 3.2 nM | IC50 ([1]; 3D7, read-out: Late rings IC50 (IC50^8h)): > 1250 nM | IC50 ([1]; 3D7, read-out: Late trophozoites Mean IC50 (IC50^8h)): 1.1 nM | IC50 ([1]; 3D7, read-out: Schizonts Mean IC50 (IC50^8h)): 1.2 nM | levels of cAMP [2]: decreased | levels of the deoxyribonucleotides dAMP and dTMP [2]: increased | nucleoside di- and tri-phosphate levels (GDP, UDP, GTP, dATP, dGTP/ATP, dUTP) [2]: decreased | peptide levels (hemoglobin catabolism signature) [2]: decreased peptide levels | IC50 [3]: 0.73 nM | Log2(fold changes) 3-phosphoglycerate ([4]; metabolite 3-phosphoglycerate, log2 fold change): 0.0100 | Log2(fold changes) 4-Pyridoxic acid ([4]; metabolite 4-Pyridoxic acid, log2 fold change): -0.6000 | Log2(fold changes) 4-aminobutyrate ([4]; metabolite 4-aminobutyrate, log2 fold change): -0.5400 | Log2(fold changes) 4-phosphopantetheine ([4]; metabolite 4-phosphopantetheine, log2 fold change): 0.0000 | Log2(fold changes) 4-phosphopantothenate ([4]; metabolite 4-phosphopantothenate, log2 fold change): -0.1500 | Log2(fold changes) 5-aminopentanoic acid ([4]; metabolite 5-aminopentanoic acid, log2 fold change): 0.0000 | Log2(fold changes) 5-methyl-THF ([4]; metabolite 5-methyl-THF, log2 fold change): 0.0000 | Log2(fold changes) 5-phosphoribosyl-1-pyrophosphate ([4]; metabolite 5-phosphoribosyl-1-pyrophosphate, log2 fold change): -2.9800 | Log2(fold changes) 6-phospho-D-gluconate ([4]; metabolite 6-phospho-D-gluconate, log2 fold change): -0.2800 | Log2(fold change) HVDD ([4]; metabolite HVDD): 0.0000 | Log2(fold change) Hydroxyisocaproic acid ([4]; metabolite Hydroxyisocaproic acid): 0.0000 | Log2(fold change) IDP ([4]; metabolite IDP): 0.0000 | Log2(fold change) IMP ([4]; metabolite IMP): 0.3800 | Log2(fold change) Inositol ([4]; metabolite Inositol): 0.0000 | Log2(fold change) Isopentyl-PP ([4]; metabolite Isopentyl-PP): 0.0000 | Log2(fold change) L-arginino-succinate ([4]; metabolite L-arginino-succinate): 0.0000 | Log2(fold change) LD ([4]; metabolite LD): -1.3200 | Log2(fold change) Myristoyl/tetradecanoyl-CoA ([4]; metabolite Myristoyl/tetradecanoyl-CoA): 0.0000 | Log2(fold change) N-Acetyl-L-alanine ([4]; metabolite N-Acetyl-L-alanine): -1.4200 | Log2(fold change) N-acetyl-L-ornithine ([4]; metabolite N-acetyl-L-ornithine): -1.2700 | Log2(fold change) N-acetyl-glucosamine-1/6-phosphate ([4]; metabolite N-acetyl-glucosamine-1/6-phosphate): -0.2300 | Log2(fold change) N-acetyl-glutamate ([4]; metabolite N-acetyl-glutamate): -0.2700 | Log2(fold change) N-acetyl-glutamine ([4]; metabolite N-acetyl-glutamine): -0.4300 | Log2(fold change) N-carbamoyl-L-aspartate ([4]; metabolite N-carbamoyl-L-aspartate): -4.5700 | Log2(fold change) NAD+ ([4]; metabolite NAD+): -0.4000 | Log2(fold change) NADH ([4]; metabolite NADH): 0.0300 | Log2(fold change) NADP+ ([4]; metabolite NADP+): -0.1200 | Log2(fold change) NADPH ([4]; metabolite NADPH): 0.3500 | Log2(fold change) O-acetyl-L-serine ([4]; metabolite O-acetyl-L-serine): 0.0000 | Log2(fold change) Octoluse 8/1P ([4]; metabolite Octoluse 8/1P): -0.7200 | Log2(fold change) Octoluse Bisphosphate ([4]; metabolite Octoluse Bisphosphate): -1.2000 | Log2(fold change) PD ([4]; metabolite PD): -1.2400 | Log2(fold change) PE ([4]; metabolite PE): -3.4900 | Log2(fold change) PEE ([4]; metabolite PEE): -5.3200 | Log2(fold change) PEEK ([4]; metabolite PEEK): -1.5400 | Log2(fold change) PVNF ([4]; metabolite PVNF): -2.0700 | Log2(fold change) Pyroglutamic acid ([4]; metabolite Pyroglutamic acid): -0.0600 | Log2(fold change) Pyrophosphate ([4]; metabolite Pyrophosphate): -3.3800 | Log2(fold change) Ribose-5-phosphate ([4]; metabolite Ribose-5-phosphate): 0.0000 | Log2(fold change) S-adenosyl-L-homocysteine ([4]; metabolite S-adenosyl-L-homocysteine): -1.6400 | Log2(fold change) S-adenosyl-L-methioninamine ([4]; metabolite S-adenosyl-L-methioninamine): 0.0000 | Log2(fold change) S-adenosyl-L-methionine ([4]; metabolite S-adenosyl-L-methionine): 0.0000 | Log2(fold change) S-methyl-5'-thioadenosine ([4]; metabolite S-methyl-5'-thioadenosine): -0.5300 | Log2(fold change) SD ([4]; metabolite SD): -3.7000 | Log2(fold change) SDL ([4]; metabolite SDL): 0.0000 | Log2(fold change) SID ([4]; metabolite SID): 0.0000 | Log2(fold change) Sedoheptulose bisphosphate ([4]; metabolite Sedoheptulose bisphosphate): -1.3400 | Log2(fold change) Thiamine pyrophosphate ([4]; metabolite Thiamine pyrophosphate): 0.0000 | Log2(fold changes) UDP-D-glucose ([4]; metabolite UDP-D-glucose, log2 fold change): -0.2000 | Log2(fold changes) UDP-D-glucuronate ([4]; metabolite UDP-D-glucuronate, log2 fold change): -0.3600 | Log2(fold changes) UDP-N-acetyl-glucosamine ([4]; metabolite UDP-N-acetyl-glucosamine, log2 fold change): 0.0300 | Log2(fold changes) UDP ([4]; metabolite UDP, log2 fold change): -0.9600 | Log2(fold changes) UMP ([4]; metabolite UMP, log2 fold change): -0.3800 | Log2(fold changes) UTP ([4]; metabolite UTP, log2 fold change): -2.0500 | Log2(fold change) hydroxyphenylpyruvate ([4]; metabolite hydroxyphenylpyruvate): 0.0000 | Log2(fold change) hydroxyproline/Aminolevulinate ([4]; metabolite hydroxyproline/Aminolevulinate): 0.0000 | Log2(fold change) hypoxanthine ([4]; metabolite hypoxanthine): 0.2700 | Log2(fold change) indole ([4]; metabolite indole): 0.1700 | Log2(fold change) inosine ([4]; metabolite inosine): 0.1600 | Log2(fold change) isoleucine ([4]; metabolite isoleucine): 0.0000 | Log2(fold change) lactate ([4]; metabolite lactate): -1.3100 | Log2(fold change) leucine ([4]; metabolite leucine): 0.0000 | Log2(fold change) lysine ([4]; metabolite lysine): 0.0000 | Log2(fold change) malate ([4]; metabolite malate): -0.0600 | Log2(fold change) maleic acid ([4]; metabolite maleic acid): 0.0000 | Log2(fold change) methionine ([4]; metabolite methionine): 0.0000 | Log2(fold change) myo-inositol ([4]; metabolite myo-inositol): -3.2700 | Log2(fold change) nicotinamide mononucleotide ([4]; metabolite nicotinamide mononucleotide): 0.0000 | Log2(fold change) nicotinate ([4]; metabolite nicotinate): 0.7800 | Log2(fold change) ornithine ([4]; metabolite ornithine): -0.1500 | Log2(fold change) orotate ([4]; metabolite orotate): 0.9100 | Log2(fold change) orotidine-5'-phosphate ([4]; metabolite orotidine-5'-phosphate): 0.0000 | Log2(fold change) oxaloacetate ([4]; metabolite oxaloacetate): 0.0000 | Log2(fold change) p-aminobenzoate ([4]; metabolite p-aminobenzoate): 0.0000 | Log2(fold change) p-hydroxybenzoate ([4]; metabolite p-hydroxybenzoate): 0.5800 | Log2(fold change) pantothenate ([4]; metabolite pantothenate): 0.0000 | Log2(fold change) phenylalanine ([4]; metabolite phenylalanine): 0.0000 | Log2(fold change) phenylpyruvate ([4]; metabolite phenylpyruvate): -0.7100 | Log2(fold change) phosphoenolpyruvate ([4]; metabolite phosphoenolpyruvate): 0.4500 | Log2(fold change) prephenate ([4]; metabolite prephenate): 0.0000 | Log2(fold change) proline ([4]; metabolite proline): 0.0000 | Log2(fold change) pyridoxine ([4]; metabolite pyridoxine): 0.0000 | Log2(fold change) pyruvate ([4]; metabolite pyruvate): -1.3400 | Log2(fold change) riboflavin ([4]; metabolite riboflavin): 0.0000 | Log2(fold change) ribose ([4]; metabolite ribose): 0.0000 | Log2(fold change) ribose-phosphate ([4]; metabolite ribose-phosphate): -0.5600 | Log2(fold change) ribulose-5-phosphate ([4]; metabolite ribulose-5-phosphate): 0.0000 | Log2(fold change) serine ([4]; metabolite serine): 0.0000 | Log2(fold change) sn-glycerol-3-phosphate ([4]; metabolite sn-glycerol-3-phosphate): 0.6100 | Log2(fold change) succinate/Methylmalonic acid ([4]; metabolite succinate/Methylmalonic acid): 0.1400 | Log2(fold change) succinyl-CoA/methylmalonyl-CoA ([4]; metabolite succinyl-CoA/methylmalonyl-CoA): 0.0000 | Log2(fold change) taurine ([4]; metabolite taurine): 0.0000 | Log2(fold change) thiamine ([4]; metabolite thiamine): 0.0000 | Log2(fold change) threonine/homoserine ([4]; metabolite threonine/homoserine): 0.0000 | Log2(fold change) thymidine ([4]; metabolite thymidine): 0.7900 | Log2(fold changes) thymine ([4]; metabolite thymine, log2 fold change): -0.5500 | Log2(fold changes) trehalose-6-Phosphate ([4]; metabolite trehalose-6-Phosphate, log2 fold change): 0.0000 | Log2(fold changes) tryptophan ([4]; metabolite tryptophan, log2 fold change): 0.0000 | Log2(fold changes) tyrosine ([4]; metabolite tyrosine, log2 fold change): 0.0000 | Log2(fold changes) uridine ([4]; metabolite uridine, log2 fold change): -0.4400

From article PMC7031696 (Cell chemical biology, 2019)
